The record followed here is ChEMBL document CHEMBL5465560, “Selectivity Literature for EUbOPEN Chemogenomic Library” (2024).

Experiment [1] deals with T1, cGMP-dependent protein kinase 2 (Homo sapiens) (UniProt Q13237).
T1 sequence (whole entry): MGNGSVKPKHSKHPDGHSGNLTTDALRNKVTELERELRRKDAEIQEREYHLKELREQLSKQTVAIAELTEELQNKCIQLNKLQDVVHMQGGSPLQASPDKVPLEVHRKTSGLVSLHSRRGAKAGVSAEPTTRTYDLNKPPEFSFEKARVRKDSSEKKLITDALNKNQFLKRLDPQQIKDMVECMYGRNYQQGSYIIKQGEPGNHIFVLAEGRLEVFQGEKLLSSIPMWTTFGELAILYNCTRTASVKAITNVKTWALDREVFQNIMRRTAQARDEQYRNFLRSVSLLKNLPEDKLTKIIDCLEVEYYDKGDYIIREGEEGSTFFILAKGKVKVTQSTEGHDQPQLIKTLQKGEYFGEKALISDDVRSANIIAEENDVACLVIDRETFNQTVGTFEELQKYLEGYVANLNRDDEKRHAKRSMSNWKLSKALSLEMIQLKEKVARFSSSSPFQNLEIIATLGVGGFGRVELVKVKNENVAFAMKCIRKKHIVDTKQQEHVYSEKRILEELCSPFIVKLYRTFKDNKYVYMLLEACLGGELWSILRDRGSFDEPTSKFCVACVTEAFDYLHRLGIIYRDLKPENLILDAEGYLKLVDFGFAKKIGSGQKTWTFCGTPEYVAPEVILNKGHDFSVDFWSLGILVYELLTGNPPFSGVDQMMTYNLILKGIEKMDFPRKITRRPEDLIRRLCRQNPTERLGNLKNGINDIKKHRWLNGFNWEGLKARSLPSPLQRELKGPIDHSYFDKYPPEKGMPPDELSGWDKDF
The experiment is described as follows: Selectivity interaction (KinomeScan (DiscoverX)) EUB0000595a PRKG2. The following applies: at 10 µM.

Experiment [2] has as its target T2, Mitogen-activated protein kinase kinase kinase 3 (Homo sapiens) (UniProt Q99759).
T2 sequence (whole entry): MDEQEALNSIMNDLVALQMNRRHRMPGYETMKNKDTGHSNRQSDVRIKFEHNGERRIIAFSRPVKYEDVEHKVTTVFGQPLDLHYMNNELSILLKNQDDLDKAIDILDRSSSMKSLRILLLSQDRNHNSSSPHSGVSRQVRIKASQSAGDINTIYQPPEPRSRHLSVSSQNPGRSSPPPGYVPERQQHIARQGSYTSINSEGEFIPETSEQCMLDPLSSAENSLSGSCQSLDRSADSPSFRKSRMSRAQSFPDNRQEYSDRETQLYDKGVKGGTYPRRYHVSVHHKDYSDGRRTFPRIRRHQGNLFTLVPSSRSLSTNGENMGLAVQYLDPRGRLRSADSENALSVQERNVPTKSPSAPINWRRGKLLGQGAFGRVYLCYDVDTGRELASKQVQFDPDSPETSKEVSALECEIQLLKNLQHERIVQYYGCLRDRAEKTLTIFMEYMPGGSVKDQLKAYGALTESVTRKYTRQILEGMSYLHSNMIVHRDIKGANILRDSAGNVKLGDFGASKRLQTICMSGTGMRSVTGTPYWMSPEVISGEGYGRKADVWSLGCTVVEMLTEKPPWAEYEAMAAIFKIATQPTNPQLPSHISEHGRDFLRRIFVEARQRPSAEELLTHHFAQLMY
The experiment is described as follows: Selectivity interaction (ActivX KiNativ screen (ex vivo kinase selectivity in human PBMCs)) EUB0001619a MAP3K3. The format is cell-based. The following applies: PBMC, at 1 µM.

Experiment [3] addresses Tyrosine-protein kinase BTK (Homo sapiens, UniProt Q06187). Kind of experiment: Selectivity interaction (ActivX KiNativ screen (kinase selectivity in THP-1 cell lysates)) EUB0000639a BTK. The format is subcellular. The following applies: lysate, at 1 µM.
Experiment [4] has as its target Dual specificity tyrosine-phosphorylation-regulated kinase 1B (Homo sapiens, UniProt Q9Y463). Kind of experiment: Selectivity interaction (Ambit KINOMEscan and KiNATiv profiling in Jurkat cells) EUB0000090b DYRK1B. The format is cell-based. The settings on record: at 1 µM.
Experiment [5] deals with Protein-tyrosine kinase 2-beta (Homo sapiens) (UniProt Q14289). The experiment is described as follows: Selectivity interaction (Upstate Kinase Profiler service (Millipore)) EUB0000056c PTK2B. The settings on record: at 1 µM.
Experiment [6] deals with Voltage-gated inwardly rectifying potassium channel KCNH2 (Homo sapiens, UniProt Q12809). The experiment is described as follows: Selectivity interaction (HERG dofetilide binding assay, human recombinant ) EUB0000877a KCNH2.
Experiment [7] concerns the target T3, Inhibitor of nuclear factor kappa-B kinase subunit alpha (Homo sapiens) (UniProt O15111).
T3 sequence (whole entry): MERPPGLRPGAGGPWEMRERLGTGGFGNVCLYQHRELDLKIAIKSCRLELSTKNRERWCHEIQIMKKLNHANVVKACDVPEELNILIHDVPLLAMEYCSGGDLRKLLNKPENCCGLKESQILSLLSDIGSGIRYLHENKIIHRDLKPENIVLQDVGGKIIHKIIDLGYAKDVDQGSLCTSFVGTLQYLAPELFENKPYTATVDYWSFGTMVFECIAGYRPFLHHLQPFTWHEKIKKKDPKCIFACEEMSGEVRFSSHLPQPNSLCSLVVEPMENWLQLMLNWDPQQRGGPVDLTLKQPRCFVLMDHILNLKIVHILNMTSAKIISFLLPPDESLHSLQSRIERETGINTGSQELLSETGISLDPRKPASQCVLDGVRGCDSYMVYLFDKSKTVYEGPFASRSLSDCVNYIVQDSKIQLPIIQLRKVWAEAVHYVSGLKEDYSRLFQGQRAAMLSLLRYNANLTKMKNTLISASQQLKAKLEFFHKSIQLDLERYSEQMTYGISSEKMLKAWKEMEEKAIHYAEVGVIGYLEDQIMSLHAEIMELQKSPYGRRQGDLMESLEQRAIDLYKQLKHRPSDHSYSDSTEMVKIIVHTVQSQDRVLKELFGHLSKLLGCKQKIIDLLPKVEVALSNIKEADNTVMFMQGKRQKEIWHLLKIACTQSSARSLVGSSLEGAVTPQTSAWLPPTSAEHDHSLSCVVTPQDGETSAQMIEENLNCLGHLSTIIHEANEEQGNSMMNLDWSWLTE
The experiment is described as follows: Selectivity interaction (Kinase panel (KiNativ target engagement assay in Jurkat cells)) EUB0001635a CHUK. It counts as cell-based. The settings on record: Selectivity number of off-targets 0.0, Selectivity number of targets 233.0, Source Knowledge https://www.sciencedirect.com/science/article/pii/S2451945619300674?via%3Dihub, at 1 µM.

Sequence of Protein-tyrosine kinase 2-beta (Homo sapiens) (Q14289 whole entry, looked up): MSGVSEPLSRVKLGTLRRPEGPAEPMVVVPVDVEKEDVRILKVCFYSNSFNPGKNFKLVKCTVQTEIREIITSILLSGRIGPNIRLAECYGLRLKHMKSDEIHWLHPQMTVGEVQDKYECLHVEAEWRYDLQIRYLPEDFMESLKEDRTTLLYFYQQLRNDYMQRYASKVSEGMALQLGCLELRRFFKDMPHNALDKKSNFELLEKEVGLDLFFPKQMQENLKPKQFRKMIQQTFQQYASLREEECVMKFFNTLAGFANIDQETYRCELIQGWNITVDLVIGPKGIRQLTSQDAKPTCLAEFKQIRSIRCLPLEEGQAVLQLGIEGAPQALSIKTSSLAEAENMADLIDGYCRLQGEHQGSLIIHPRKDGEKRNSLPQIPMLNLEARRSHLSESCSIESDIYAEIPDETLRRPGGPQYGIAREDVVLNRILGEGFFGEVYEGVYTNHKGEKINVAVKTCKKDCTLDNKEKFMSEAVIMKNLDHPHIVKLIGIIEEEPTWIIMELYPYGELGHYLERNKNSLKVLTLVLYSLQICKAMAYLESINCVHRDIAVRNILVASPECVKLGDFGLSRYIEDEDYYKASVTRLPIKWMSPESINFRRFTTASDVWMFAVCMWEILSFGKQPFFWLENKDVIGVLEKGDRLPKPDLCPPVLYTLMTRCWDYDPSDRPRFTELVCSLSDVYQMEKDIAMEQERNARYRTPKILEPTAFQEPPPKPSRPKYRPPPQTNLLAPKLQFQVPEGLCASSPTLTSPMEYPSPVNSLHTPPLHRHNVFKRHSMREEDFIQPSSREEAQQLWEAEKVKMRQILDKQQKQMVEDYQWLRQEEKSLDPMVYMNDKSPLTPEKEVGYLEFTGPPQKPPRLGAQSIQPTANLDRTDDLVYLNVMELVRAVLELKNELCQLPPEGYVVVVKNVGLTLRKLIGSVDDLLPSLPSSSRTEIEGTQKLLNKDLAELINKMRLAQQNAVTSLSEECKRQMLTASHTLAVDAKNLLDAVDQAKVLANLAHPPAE
Sequence of Tyrosine-protein kinase BTK (Q06187 whole entry): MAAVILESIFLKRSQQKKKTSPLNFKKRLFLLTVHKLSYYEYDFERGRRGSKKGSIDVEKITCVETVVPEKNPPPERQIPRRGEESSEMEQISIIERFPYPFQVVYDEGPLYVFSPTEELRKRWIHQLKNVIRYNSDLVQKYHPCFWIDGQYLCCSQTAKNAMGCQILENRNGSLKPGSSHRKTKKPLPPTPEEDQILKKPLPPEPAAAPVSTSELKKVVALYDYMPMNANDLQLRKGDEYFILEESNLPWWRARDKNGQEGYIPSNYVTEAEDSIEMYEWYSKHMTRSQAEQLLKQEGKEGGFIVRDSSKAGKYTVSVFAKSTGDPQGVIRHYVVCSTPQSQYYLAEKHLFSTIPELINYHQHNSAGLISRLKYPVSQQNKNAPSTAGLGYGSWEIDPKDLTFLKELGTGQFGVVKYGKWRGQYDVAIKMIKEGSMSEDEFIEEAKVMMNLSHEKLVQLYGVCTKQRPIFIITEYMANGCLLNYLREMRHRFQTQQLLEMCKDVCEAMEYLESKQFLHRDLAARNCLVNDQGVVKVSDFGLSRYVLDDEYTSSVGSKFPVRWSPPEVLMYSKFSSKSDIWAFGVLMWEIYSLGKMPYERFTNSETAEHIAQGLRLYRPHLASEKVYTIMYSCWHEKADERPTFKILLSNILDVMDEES
Sequence of Voltage-gated inwardly rectifying potassium channel KCNH2 (Q12809 whole entry): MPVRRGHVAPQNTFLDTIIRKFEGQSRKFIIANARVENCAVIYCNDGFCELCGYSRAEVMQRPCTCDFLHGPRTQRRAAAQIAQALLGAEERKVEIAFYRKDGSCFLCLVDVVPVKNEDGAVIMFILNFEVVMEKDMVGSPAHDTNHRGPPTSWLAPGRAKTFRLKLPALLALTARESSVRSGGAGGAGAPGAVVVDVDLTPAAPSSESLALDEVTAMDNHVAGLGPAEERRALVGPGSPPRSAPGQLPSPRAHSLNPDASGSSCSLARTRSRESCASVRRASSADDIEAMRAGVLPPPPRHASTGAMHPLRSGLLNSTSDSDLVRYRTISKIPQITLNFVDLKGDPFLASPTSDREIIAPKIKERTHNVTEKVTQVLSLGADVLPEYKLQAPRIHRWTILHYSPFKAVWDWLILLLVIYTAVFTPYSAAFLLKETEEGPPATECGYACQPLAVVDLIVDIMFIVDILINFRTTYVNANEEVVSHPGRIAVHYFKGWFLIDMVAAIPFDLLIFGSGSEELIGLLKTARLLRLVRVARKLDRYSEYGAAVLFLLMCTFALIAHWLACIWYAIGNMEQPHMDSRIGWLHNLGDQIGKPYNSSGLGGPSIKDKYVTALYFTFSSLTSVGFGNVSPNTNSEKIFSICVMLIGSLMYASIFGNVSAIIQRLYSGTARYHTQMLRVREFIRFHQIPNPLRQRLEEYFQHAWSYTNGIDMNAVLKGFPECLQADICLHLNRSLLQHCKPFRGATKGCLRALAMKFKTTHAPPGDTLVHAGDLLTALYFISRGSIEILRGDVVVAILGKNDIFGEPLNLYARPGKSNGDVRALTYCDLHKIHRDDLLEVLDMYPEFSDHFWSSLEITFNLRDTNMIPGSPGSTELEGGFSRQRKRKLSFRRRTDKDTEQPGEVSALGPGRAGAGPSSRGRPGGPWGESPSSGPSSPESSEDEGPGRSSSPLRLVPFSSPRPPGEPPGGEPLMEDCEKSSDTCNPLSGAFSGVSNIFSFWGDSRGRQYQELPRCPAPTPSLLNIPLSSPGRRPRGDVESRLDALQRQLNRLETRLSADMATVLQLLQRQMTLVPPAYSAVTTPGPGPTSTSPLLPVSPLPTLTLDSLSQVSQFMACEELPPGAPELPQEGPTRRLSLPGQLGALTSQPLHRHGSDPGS
Sequence of Dual specificity tyrosine-phosphorylation-regulated kinase 1B (Q9Y463 whole entry, looked up): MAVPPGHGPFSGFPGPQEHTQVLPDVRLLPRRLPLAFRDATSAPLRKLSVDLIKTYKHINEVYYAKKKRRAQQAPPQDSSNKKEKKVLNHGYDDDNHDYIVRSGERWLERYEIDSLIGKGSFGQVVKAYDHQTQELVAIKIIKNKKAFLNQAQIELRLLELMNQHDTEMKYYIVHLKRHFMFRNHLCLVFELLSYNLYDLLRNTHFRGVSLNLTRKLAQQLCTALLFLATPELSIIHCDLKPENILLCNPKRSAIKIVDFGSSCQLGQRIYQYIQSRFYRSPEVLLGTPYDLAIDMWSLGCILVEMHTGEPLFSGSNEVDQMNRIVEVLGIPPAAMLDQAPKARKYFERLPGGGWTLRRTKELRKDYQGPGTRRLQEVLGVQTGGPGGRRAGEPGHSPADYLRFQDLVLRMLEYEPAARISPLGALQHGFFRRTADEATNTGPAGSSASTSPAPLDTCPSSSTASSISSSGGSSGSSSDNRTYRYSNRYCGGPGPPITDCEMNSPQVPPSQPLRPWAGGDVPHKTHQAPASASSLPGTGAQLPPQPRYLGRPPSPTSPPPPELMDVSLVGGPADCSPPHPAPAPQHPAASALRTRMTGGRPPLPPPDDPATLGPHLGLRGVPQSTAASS

Consider `COCC(=O)NC/C=C/c1ccc2ncnc(Nc3ccc(Oc4ccc(C)nc4)c(C)c3)c2c1` [CP-724714], for which the % of control in experiment [1] is 100%.
With `N#Cc1cccc(-c2c[nH]c3ncnc(N4CCOCC4)c23)c1`, the % of inhibition in experiment [2] was 13%.
Consider `CC[C@@H]1[C@H](F)C(=O)N[C@@H]1COc1nccc2cc(C(N)=O)c(OC)cc12` [ZIMLOVISERTIB], for which, in experiment [3], the % of inhibition was -7.2%.
`CN(C)C/C=C/C(=O)Nc1ccc(C(=O)N2CCCC(Nc3ncc(Cl)c(-c4c[nH]c5ccccc45)n3)C2)cc1` (configuration not stated): the % of control in experiment [4] turned out to be 6.1%.
As to `Cc1ccc(-c2ccc3c(ccc4sc5c(c43)NC[C@@H](C)NC5=O)n2)cn1`, the % of inhibition in experiment [5] amounted to 12%.
The IC50 is the concentration needed to halve the response being measured. As to `CCC(=O)N1CC[C@H](Nc2ncnc3c2CN(c2cnc(OC)c(C(F)(F)F)c2)CC3)C1` [LENIOLISIB], in experiment [6], the 50% inhibitory concentration (IC50) was above 30 µM.
Consider `C=CC(=O)Nc1ccc(C(=O)Nc2[nH]nc3c2CN(C(=O)N[C@H](CN(C)C)c2ccccc2)C3(C)C)cc1`, for which, in experiment [7], the % of engagement was -7.3%.
